From patent US10351525B2, “Beta lactamase inhibitors” (Oxford University Innovation Limited, priority 2014, dated 2019)

Tests used:
Test in all cases: MIC of MEM with and without ML302F (1:8), VIM-4 producer
Type in all cases: cell-based
K. pneumoniae 101 = details: Klebsiella pneumoniae; K. pneumoniae 101 (VIM-4); MEM alone or with ML302F (1:8)
Experimental: (§1) In a further study, antimicrobial activities of MEM and ML302F alone and in combination were assessed in-vitro against 31 VIM-producing clinical isolates.

K. pneumoniae 196 = details: Klebsiella pneumoniae; K. pneumoniae 196 (VIM-4); MEM alone or with ML302F (1:8)
Experimental: as §1

E. coli 98 = details: Escherichia coli; E. coli 98 (VIM-4); MEM alone or with ML302F (1:8)
Experimental: as §1

K. pneumoniae 120 = details: Klebsiella pneumoniae; K. pneumoniae 120 (VIM-4); MEM alone or with ML302F (1:8)
Experimental: as §1

C[C@@H](O)[C@H]1C(=O)N2C(C(=O)O)=C(S[C@@H]3CN[C@H](C(=O)N(C)C)C3)[C@H](C)[C@H]12 [Meropenem, meropenem]
MIC (K. pneumoniae 101): 32 µg/mL
MIC (K. pneumoniae 196): 16 µg/mL
MIC (E. coli 98): 16 µg/mL
MIC (K. pneumoniae 120): 16 µg/mL
